Measurements taken from ChEMBL document CHEMBL1156813 (J Med Chem, 2010).
In brackets after ≈: the same amount, converted by molar mass.

Tests used:
[1] = physchem; conditions: phosphate buffered saline, pH 7.4
[2] = physchem; conditions: phosphate buffered saline, pH 2
[3] = biological target: Cannabinoid receptor 1 (Homo sapiens, UniProt P21554); test: biochemical; type: cell-based, CHO
[4] = biological target: Cannabinoid receptor 2 (Homo sapiens, UniProt P34972); test: biochemical
[5] = biological target: Acetylcholinesterase (Homo sapiens, UniProt P22303); test: biochemical
Chain of Acetylcholinesterase (P22303 whole entry): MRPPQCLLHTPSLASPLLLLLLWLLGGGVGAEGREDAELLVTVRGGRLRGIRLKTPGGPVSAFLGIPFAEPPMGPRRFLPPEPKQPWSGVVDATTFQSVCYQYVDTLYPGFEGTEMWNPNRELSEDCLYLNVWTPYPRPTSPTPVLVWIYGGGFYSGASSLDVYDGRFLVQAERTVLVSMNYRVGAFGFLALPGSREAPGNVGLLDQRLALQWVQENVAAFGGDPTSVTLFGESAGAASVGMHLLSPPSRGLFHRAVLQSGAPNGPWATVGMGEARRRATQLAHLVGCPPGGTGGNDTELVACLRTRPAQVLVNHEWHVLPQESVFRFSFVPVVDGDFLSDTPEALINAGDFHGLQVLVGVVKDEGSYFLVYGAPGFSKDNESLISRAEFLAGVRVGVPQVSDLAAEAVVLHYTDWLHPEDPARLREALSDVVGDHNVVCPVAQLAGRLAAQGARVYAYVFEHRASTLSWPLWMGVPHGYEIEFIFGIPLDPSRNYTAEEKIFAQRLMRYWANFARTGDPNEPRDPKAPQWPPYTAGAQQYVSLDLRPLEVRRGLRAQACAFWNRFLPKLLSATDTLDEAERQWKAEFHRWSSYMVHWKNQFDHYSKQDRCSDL
Description: Inhibition of human recombinant AChE expressed in HEK293 cells by photometry

Chain of Cannabinoid receptor 2 (P34972 whole entry): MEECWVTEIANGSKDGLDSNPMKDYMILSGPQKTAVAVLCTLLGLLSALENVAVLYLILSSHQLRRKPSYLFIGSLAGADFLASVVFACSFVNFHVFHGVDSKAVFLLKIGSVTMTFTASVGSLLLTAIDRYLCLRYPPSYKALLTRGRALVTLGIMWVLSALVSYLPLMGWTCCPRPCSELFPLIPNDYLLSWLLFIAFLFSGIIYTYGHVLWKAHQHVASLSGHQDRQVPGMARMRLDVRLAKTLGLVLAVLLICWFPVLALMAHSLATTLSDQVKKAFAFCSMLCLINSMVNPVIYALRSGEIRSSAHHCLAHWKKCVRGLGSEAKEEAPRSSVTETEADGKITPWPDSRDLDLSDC
Chain of Cannabinoid receptor 1 (P21554 whole entry): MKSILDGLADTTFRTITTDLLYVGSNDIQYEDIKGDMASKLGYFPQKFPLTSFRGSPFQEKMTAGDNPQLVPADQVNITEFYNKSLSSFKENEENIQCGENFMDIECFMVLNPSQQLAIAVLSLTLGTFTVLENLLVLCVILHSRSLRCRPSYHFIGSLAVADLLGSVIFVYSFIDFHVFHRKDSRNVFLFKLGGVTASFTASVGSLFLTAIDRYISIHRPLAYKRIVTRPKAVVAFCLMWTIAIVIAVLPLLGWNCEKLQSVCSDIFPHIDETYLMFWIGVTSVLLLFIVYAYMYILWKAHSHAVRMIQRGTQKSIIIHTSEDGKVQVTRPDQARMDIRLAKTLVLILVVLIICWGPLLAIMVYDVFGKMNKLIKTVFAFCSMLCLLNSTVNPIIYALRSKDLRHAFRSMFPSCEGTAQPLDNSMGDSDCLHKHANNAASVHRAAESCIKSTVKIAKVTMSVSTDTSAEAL

With `CN1CCC(N/C(=N\S(=O)(=O)c2ccc(Cl)cc2)N2CC(c3ccccc3)C(c3ccc(Cl)cc3)=N2)CC1` (stereo unspecified) the solubility kinetic [1] was 11 µM (≈ 6.28 µg/mL), the solubility kinetic [2] was 65 µM (≈ 37.1 µg/mL) and the Ki [3] was 19 nM. For the same compound, the Ki [4] was > 1000 nM.

For `CN(C)CCCN/C(=N\S(=O)(=O)c1ccc(Cl)cc1)N1CC(c2ccccc2)C(c2ccc(Cl)cc2)=N1.Cl` (stereo unspecified), the solubility kinetic [1] was 38 µM, the solubility kinetic [2] was > 100 µM and the Ki [3] was 3.1 nM. For the same compound, the Ki [4] was > 1000 nM.

Compound `CC(C)(O)CN=C(NS(=O)(=O)c1ccc(Cl)cc1)N1CC(c2ccccc2)C(c2ccc(Cl)cc2)=N1` (stereo unspecified) has a solubility kinetic [1] of 4 µM (≈ 2.18 µg/mL), a solubility kinetic [2] of 4 µM (≈ 2.18 µg/mL) and a Ki [3] of 43 nM. For the same compound, the Ki [4] was > 1000 nM.

Compound `CN(C)CCN1CCN(/C(=N\S(=O)(=O)c2ccc(Cl)cc2)N2CC(c3ccccc3)C(c3ccc(Cl)cc3)=N2)CC1` (stereo unspecified) has a solubility kinetic [1] of 4 µM (≈ 2.45 µg/mL), a solubility kinetic [2] of 65 µM (≈ 39.9 µg/mL) and a Ki [3] of 9.6 nM. For the same compound, the Ki [4] was > 1000 nM.

With `O=S(=O)(/N=C(\NCCCCNc1c2c(nc3ccccc13)CCCC2)N1CC(c2ccccc2)C(c2ccc(Cl)cc2)=N1)c1ccc(Cl)cc1` (stereo unspecified) the Ki [3] was 42 nM and the Ki [4] was > 1000 nM.

For `O=S(=O)(N=C(NCCCCN1CCCC1)N1CC(c2ccccc2)C(c2ccc(Cl)cc2)=N1)c1ccc(Cl)cc1` (stereo unspecified), the solubility kinetic [1] was 11 µM (≈ 6.58 µg/mL), the solubility kinetic [2] was 38 µM (≈ 22.7 µg/mL) and the Ki [3] was 27 nM. The Ki [4] was > 1000 nM.

For `CCc1c(C(=O)NN2CCCCC2)nc(-c2ccccc2Cl)n1-c1ccc(Cl)cc1`, the Ki [3] was 14 nM, the Ki [4] was > 1000 nM and the IC50 [5] was > 31600 nM.

With `O=S1(=O)CCN(/C(=N\S(=O)(=O)c2ccc(Cl)cc2)N2CC(c3ccccc3)C(c3ccc(Cl)cc3)=N2)CC1` (stereo unspecified) the solubility kinetic [1] was < 3 µM, the solubility kinetic [2] was < 7 µM and the Ki [3] was 31 nM. For the same compound, the Ki [4] was 571 nM.

Work on `CNC(=NS(=O)(=O)c1ccc(Cl)cc1)N1CC(c2ccccc2)C(c2ccc(Cl)cc2)=N1` (stereo not drawn) [RAC-IBIPINABANT] yielded a solubility kinetic [1] of 2 µM (≈ 0.975 µg/mL) and a solubility kinetic [2] of 4 µM (≈ 1.95 µg/mL).
